Each structure is given as a SMILES string. Several values for one entry are separate records, joined by “and”; a condition that tells them apart may be missing. Identical values can stand only once.

The subject of this assay is IGROV1 complex spheroids (HUVEC, MSC), viability % test/control. Briefly: Anticancer human tumor IGROV1 cell line growth inhibition [GQUAD].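 On all read-outs here: spheroids exposed to compounds for 7 days before readout.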 The settings on record: for viability, T/C: stronger effect = lower value. An excerpt:
DNA G-quadruplex Stabilizer Agents in Combinations in Complex Spheroids
A high-throughput screen of multi-cell type tumor spheroids was designed to identify active combinations of DNA G-quadruplex stabilizer agents and targeted small molecules. Complex spheroids include a stromal component modeled by human endothelial cells (HUVEC) and fibroblasts modeled by human mesenchymal stem cells (MSCs). The concentration ranges selected for each drug and investigational agent were based upon clinically achievable concentrations if the clinical Cmax of the agent was known.
Compounds. The drugs and investigational agents: pidnarulex (CX-5461; NSC782164), APTO-253 (NSC789042), BRACO-19 (NSC847499), peposertib (NSC802822), ceralasertib (NSC780249), elimusertib (NSC800525), camonsertib (NSC841442), AZD-1390 (NSC803789), olaparib (NSC753686), talazoparib (NSC767125), ART-558 (NSC835418), sotorasib (NSC818433), MRTX-1133 (NSC836407), SN-38 (NSC673596), topotecan (NSC609699), etoposide (NSC141540), doxorubicin (NSC123127), gemcitabine (NSC613327), 5-fluorouracil (NSC19893), paclitaxel (NSC125973), vemurafenib (NSC761431), panobinostat (NSC761190), R-306465 (JNJ-16241199; NSC773264), adavosertib (NSC754352), TP-3654 (NSC805149), carboplatin (NSC241240), KSQ-4279 (NSC840948), and staurosporine (NSC755774) were obtained from the National Cancer Institute (NCI) Developmental Therapeutics Program Chemical Repository (34). The FDA-approved anticancer drug set is available from the NCI Developmental Therapeutics Program. […] The stock solutions were prepared in dimethyl sulfoxide (DMSO, Sigma-Aldrich, St. Louis, MO, cat. D2650) at 800-fold the tested concentration and stored at -70 degrees C prior to their use. All drugs and investigational agents were tested over a range starting from a high concentration at or near the clinical Cmax and decreasing in half-log increments. If the clinical Cmax for an agent had not been determined, the highest concentration tested was 10 microM.
2.3 Cell Culture. All cells were maintained in an incubator at 37 degrees C and 5% CO2 with 95% humidity. The PDC lines were cultured according to standard operating procedures established by the NCI PDMR. All PDCs were thawed and cultured in Matrigel-coated flasks prepared with a working solution of 1X Ham's F-12 nutrient mix, without supplementation (Invitrogen, cat. 11765054), 100 U/mL penicillin-streptomycin (Invitrogen, cat. 15140122), and 2.5% Matrigel (Corning Inc., cat. 354248) for the first three passages. The 857933-349-R-J2-PDC line was cultured in 6C/Colon 1B media, which includes advanced DMEM/F-12 (Thermo Fisher Scientific, cat. 12634028), 10 mM HEPES (Thermo Fisher Scientific, cat. 15630080), 1X GlutaMAX supplement (Thermo Fisher Scientific, cat. 35050061), 0.1 mg/mL primocin (InvivoGen, cat. ant-pm-2), 10% defined fetal bovine serum, heat inactivated (HyClone Laboratories Inc., cat. SH30070.03HI), 50% L-WRN conditioned media (ATCC, cat. CRL-3276), 1.25 mM N-Acetyl-L-cysteine (Sigma-Aldrich, cat. A9165), 10 mM nicotinamide (Sigma-Aldrich, cat. N0636), 1X B-27 supplement (Thermo Fisher Scientific, cat. 17504044), 1X N-2 supplement (Thermo Fisher Scientific, cat. 17502048), 10 microM Y-27632 dihydrochloride (Tocris Bioscience, cat. 1254), and 50 ng/mL human EGF recombinant protein (Thermo Fisher Scientific, cat. PHG0311). The 485176-168-R4-J1-PDC line was cultured in Panc media, which includes all 6C/Colon 1B media components plus 100 ng/mL human FGF-10 (Thermo Fisher Scientific, cat. 100-26), 500 nM SB-431542 (Selleckchem, cat. S1067), and gastrin (Tocris, cat. 3006).
[…]

`CC(=O)O[C@H]1C(=O)[C@@]2(C)[C@H]([C@H](OC(=O)c3ccccc3)[C@]3(O)C[C@H](OC(=O)[C@H](O)[C@@H](NC(=O)c4ccccc4)c4ccccc4)C(C)=C1C3(C)C)[C@]1(OC(C)=O)CO[C@@H]1C[C@@H]2O` + Cc1cnc(CNC(=O)c2c(=O)c3ccc(N4CCCN(C)CC4)nc3n3c2sc2ccccc23)cn1: the IC50 (curve of first compound, second compound 0.0316 µM) is less than 31.6 nM; the concentration for half-maximal inhibition (IC50) (curve of first compound, second compound 0.1 µM) was less than 31.6 nM; the half-maximal inhibitory concentration (IC50) (curve of first compound, second compound 0.316 µM) is less than 31.6 nM; the IC50 (curve of first compound, second compound 1 µM) is less than 31.6 nM; the IC50 (curve of first compound, second compound 3.16 µM) was less than 31.6 nM; the IC50 (curve of first compound, second compound 10 µM) is less than 31.6 nM. Further, the viability, T/C was 6.85% (second compound 0.0316 µM, first compound 0.0316 µM); 7.2% (second compound 0.0316 µM, first compound 0.1 µM); 5.93% (second compound 0.0316 µM, first compound 0.316 µM); 4.84% (second compound 0.0316 µM, first compound 1 µM); 5.81% (second compound 0.0316 µM, first compound 3.16 µM); 5% (second compound 0.0316 µM, first compound 10 µM). For the same molecule, the viability, T/C is, setting by setting: (second compound 0.1 µM, first compound 0.0316 µM) 8.41%; (second compound 0.1 µM, first compound 0.1 µM) 6.77%; (second compound 0.1 µM, first compound 0.316 µM) 4.59%; (second compound 0.1 µM, first compound 1 µM) 5.47%; (second compound 0.1 µM, first compound 3.16 µM) 5.23%; (second compound 0.1 µM, first compound 10 µM) 5.1%. Moreover, the viability, T/C by setting is: (second compound 0.316 µM, first compound 0.0316 µM) 7.94%; (second compound 0.316 µM, first compound 0.1 µM) 7.36%; (second compound 0.316 µM, first compound 0.316 µM) 5.21%; (second compound 0.316 µM, first compound 1 µM) 5.4%; (second compound 0.316 µM, first compound 3.16 µM) 5.37%; (second compound 0.316 µM, first compound 10 µM) 5.62%. Moreover, the viability, T/C is, setting by setting: (second compound 1 µM, first compound 0.0316 µM) 8.3%; (second compound 1 µM, first compound 0.1 µM) 8.57%; (second compound 1 µM, first compound 0.316 µM) 6.36%; (second compound 1 µM, first compound 1 µM) 6.43%; (second compound 1 µM, first compound 3.16 µM) 6.28%; (second compound 1 µM, first compound 10 µM) 5.79%. Also, the viability, T/C by setting is: (second compound 3.16 µM, first compound 0.0316 µM) 7.17%; (second compound 3.16 µM, first compound 0.1 µM) 6.44%; (second compound 3.16 µM, first compound 0.316 µM) 7.03%; (second compound 3.16 µM, first compound 1 µM) 6.22%; (second compound 3.16 µM, first compound 3.16 µM) 6.75%; (second compound 3.16 µM, first compound 10 µM) 5.4%. The viability, T/C is 5.82% (second compound 10 µM, first compound 0.0316 µM); 6.66% (second compound 10 µM, first compound 0.1 µM); 6.12% (second compound 10 µM, first compound 0.316 µM); 6.29% (second compound 10 µM, first compound 1 µM); 6.72% (second compound 10 µM, first compound 3.16 µM); 6.2% (second compound 10 µM, first compound 10 µM).
Turning to `CCCS(=O)(=O)Nc1ccc(F)c(C(=O)c2c[nH]c3ncc(-c4ccc(Cl)cc4)cc23)c1F`, the viability, T/C (compound 0.0316 µM) is 105% (2×) and 108%; the viability, T/C (compound 0.1 µM) is 96.1% and 96.3% and 95.1%; the viability, T/C (compound 0.316 µM) was 106% and 108% and 97.5%; the viability, T/C (compound 1 µM) is 103% and 80.5% and 96.6%; the viability, T/C (compound 3.16 µM) is 66.4% and 67.2% and 56.1%; the viability, T/C (compound 10 µM) is 21.1% and 13.8% and 16.5%. Further, the IC50 (curve of compound) was 4800 nM and 4380 nM and 3780 nM.
For the molecule `CC1COCCN1c1cc(C2(O)CC3CCC(C2)O3)c2cnn(-c3ccn[nH]3)c2n1` (stereo not drawn), the viability, T/C (compound 0.0316 µM) was 51.5% and 57.1% and 50.6%; the viability, T/C (compound 0.1 µM) was 16.8% and 21.7% and 20.7%; the viability, T/C (compound 0.316 µM) was 7.14% and 8.09% and 7.26%; the viability, T/C (compound 1 µM) is 4.84% and 5.33% and 5.42%; the viability, T/C (compound 3.16 µM) was 2.68% and 4.74% and 3.78%; the viability, T/C (compound 10 µM) is 1.72% and 2.09% and 2.04%. Also, under “curve of compound”, the IC50 is 32.6 nM and 39.6 nM and 32.3 nM.
Turning to `C#Cc1c(F)ccc2cc(O)cc(-c3ncc4c(N5CC6CCC(C5)N6)nc(OCC56CCCN5CC(F)C6)nc4c3F)c12` (stereo not drawn), the viability, T/C runs as follows: (compound 0.0316 µM) 88.9% and 93.9% and 107%; (compound 0.1 µM) 86.7% and 79.6% and 89.4%; (compound 0.316 µM) 81.5% and 89.6% and 96.4%; (compound 1 µM) 87.2% and 88.1% and 95.8%; (compound 3.16 µM) 82% and 85% and 88.4%; (compound 10 µM) 51.3% and 49% and 64.6%. In addition, where the note is “curve of compound”, the 50% inhibitory concentration (IC50) is > 10000 nM and 9690 nM.

Values taken from PubChem BioAssay AID2060486 (Molecular Pharmacology Branch, DTP, NCI, 2025).
